Test results reported in ChEMBL document CHEMBL1147802, “Diarylacetylene piperidinyl amides as novel anxiolytics” (Bioorg Med Chem Lett, 2006).

Tests used:
[1] = target: T1, Substance-K receptor (Homo sapiens) (UniProt P21452); experiment: Inhibition of human NK2 receptor expressed in CHO cells at 10 uM; assay type: cell-based
T1 sequence (whole entry): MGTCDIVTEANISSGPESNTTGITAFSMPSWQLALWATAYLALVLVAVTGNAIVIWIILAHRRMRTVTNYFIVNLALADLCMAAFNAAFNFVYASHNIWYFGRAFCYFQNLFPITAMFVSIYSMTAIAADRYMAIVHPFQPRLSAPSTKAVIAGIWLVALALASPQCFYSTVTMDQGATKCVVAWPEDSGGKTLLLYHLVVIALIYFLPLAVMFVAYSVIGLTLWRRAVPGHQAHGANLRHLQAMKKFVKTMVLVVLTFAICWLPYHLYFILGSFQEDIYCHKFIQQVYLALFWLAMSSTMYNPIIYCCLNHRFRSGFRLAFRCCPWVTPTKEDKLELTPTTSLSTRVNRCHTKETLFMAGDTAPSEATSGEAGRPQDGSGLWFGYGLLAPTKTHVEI

Substance-P receptor [2] = target: T2, Substance-P receptor (Homo sapiens, UniProt P25103); experiment: Inhibition of human NK1 receptor expressed in U373MG cells at 10 uM; assay type: cell-based; conditions: U-373MG ATCC
Substance-K receptor = target: T3, Substance-K receptor (Homo sapiens, UniProt P21452); experiment: Inhibition of human NK2 receptor expressed in CHO cells; assay type: cell-based
T3 sequence (P21452 whole entry): T1 sequence (whole entry)

Substance-P receptor [3] = target: T2, Substance-P receptor; experiment: Inhibition of human NK1 receptor expressed in U373MG cells; assay type: cell-based, U-373MG ATCC
[4] = Half life in cynomolgus monkey; assay type: ADME, organism-based, Macaca fascicularis; conditions: in vivo
[5] = Bioavailability in cynomolgus monkey; assay type: ADME, organism-based, Macaca fascicularis; conditions: in vivo
[6] = Stability in rat liver microsomes after 60 min; assay type: ADME, Microsome; conditions: read-out: Stability
[7] = Stability in human liver microsomes after 60 min; assay type: ADME, Microsome; conditions: read-out: Stability
[8] = Half life in rat at 15 mg/kg, po; assay type: ADME, organism-based; set-up: dose 15 mg/kg, route oral; conditions: in vivo
Mus musculus [9] = experiment: Anxiolytic activity in orally dosed mouse assessed as reversal of DOI-induced head shake; assay type: functional; conditions: po, read-out: MED
Mus musculus [10] = experiment: Anxiolytic activity in mouse after oral administration by EPM test; assay type: functional; conditions: read-out: MED
[11] = Oral bioavailability in rat at 15 mg/kg, po; assay type: ADME, organism-based; conditions: in vivo
[12] = Oral bioavailability in rat at 10 mg/kg, po; assay type: ADME, organism-based; conditions: in vivo
[13] = Stability in human liver microsomes after 90 min; assay type: ADME, Microsome; conditions: read-out: Stability
[14] = Oral bioavailability in rat at 3 mg/kg, po; assay type: ADME, organism-based; conditions: in vivo
[15] = Stability in rat liver microsomes after 90 min; assay type: ADME, Microsome; conditions: read-out: Stability
[16] = Oral bioavailability in rat at 40 mg/kg, po; assay type: ADME, organism-based; conditions: in vivo
Homo sapiens = organism: Homo sapiens; experiment: Inhibition of GABA transporter at 10 uM
[17] = Half life in rat at 40 mg/kg, po; assay type: ADME, organism-based; set-up: dose 40 mg/kg, route oral; conditions: in vivo

T2 sequence (P25103 whole entry): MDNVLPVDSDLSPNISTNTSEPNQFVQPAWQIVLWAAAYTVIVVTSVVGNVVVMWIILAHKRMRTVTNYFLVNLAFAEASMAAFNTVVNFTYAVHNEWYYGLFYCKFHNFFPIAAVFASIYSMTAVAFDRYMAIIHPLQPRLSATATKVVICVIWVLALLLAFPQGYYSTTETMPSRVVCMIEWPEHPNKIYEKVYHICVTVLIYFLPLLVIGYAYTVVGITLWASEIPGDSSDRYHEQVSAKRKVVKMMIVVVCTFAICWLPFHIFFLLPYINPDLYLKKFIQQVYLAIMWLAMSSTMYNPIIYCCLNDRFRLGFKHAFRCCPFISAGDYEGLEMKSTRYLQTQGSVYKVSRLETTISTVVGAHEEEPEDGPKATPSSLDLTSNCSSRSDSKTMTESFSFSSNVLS

| SMILES | inhibition [1] [%] | inhibition (Substance-P receptor [2]) [%] | IC50 (Substance-K receptor) [nM] | IC50 (Substance-P receptor [3]) [nM] | minimal effective dose (Mus musculus [9]) [mg/kg] | minimal effective dose (Mus musculus [10]) [mg/kg] | remaining at 1.5 h [13] [%] | remaining at 1.5 h [15] [%] | also measured |
| --- | --- | --- | --- | --- | --- | --- | --- | --- | --- |
| O=C(CC1CCN(C(=O)c2cccc(C#Cc3ccccc3)c2)CC1)Nc1ccccc1 | 7 | 28 |  |  |  |  |  |  |  |
| O=C(CC1CCN(C(=O)c2cccc(C#Cc3ccccn3)c2)CC1)Nc1ccc(F)cc1 | 96 | 96 | 1000 | 1000 |  |  |  |  |  |
| O=C(CC1CCN(C(=O)c2cccc(C#Cc3ccccn3)c2)CC1)Nc1ccc(F)cc1F | 8 | 16 |  |  | 0.1 | 1 |  |  | half-life [4]: 3.1 h; bioavailability [5]: 38%; remaining at 1 h [6]: 0.1%; remaining at 1 h [7]: 15%; half-life [8]: 2.7 h; bioavailability [11]: 7% |
| O=C(CC1CCN(C(=O)c2cccc(C#Cc3ccccn3)c2)CC1)Nc1ccccc1F | 97 | 96 | 550 | 640 |  |  |  |  |  |
| O=C(CC1CCN(C(=O)c2cccc(C#Cc3ccccn3)c2)CC1)Nc1ccc(O)cc1 |  | 18 |  |  | 20 | 3 | 80 | 97 | bioavailability [12]: < 2%; bioavailability [14]: < 2% |
| O=C(CC1CCN(C(=O)c2cccc(C#Cc3ccccn3)c2)CC1)Nc1ccccc1 | 11 | 37 |  |  | 20 | 1 | 35 | 63 | bioavailability [16]: 65%; inhibition (Homo sapiens): 60%; half-life [17]: 3.1 h |
